In one data set the test system is NCI-H526. In words: Antiproliferative activity against human NCI-H526 cells assessed as cell growth inhibition incubated for 96 hrs by MTS assay. In kind it is functional, cell-based. The settings on record: NCI-H526, 96 h. A general note: Formazan colour is commonly taken as a measure of viable cells.
Another data set deals with OV-90. The experiment in a line: Antiproliferative activity against human OV-90 cells assessed as cell growth inhibition incubated for 96 hrs by crystal violet staining. To be noted: OV-90, 96 h.
In the next data set the test system is MIA PaCa-2. The experiment in a line: Antiproliferative activity against human MIA PaCa-2 cells assessed as cell growth inhibition incubated for 96 hrs by crystal violet staining. To be noted: MIA PaCa-2, 96 h.
In the next data set the test system is SiHa. The experiment in a line: Antiproliferative activity against human SiHa cells assessed as cell growth inhibition incubated for 96 hrs by crystal violet staining.
Data set [1] deals with Mitogen-activated protein kinase 10 (Homo sapiens, UniProt P53779). The experiment in a line: Binding affinity to JNK3 (unknown origin) assessed as dissociation constant.
The nature of data set [2]: Tmax in female NMRI mouse plasma at 1 mg/kg, po measured after 24 hrs by LC/-MS/MS analysis.
The next data set deals with RKO. The experiment in a line: Antiproliferative activity against human TP53 wildtype RKO cells assessed as cell growth inhibition incubated for 96 hrs by crystal violet staining.
The target in data set [3] is Mitogen-activated protein kinase kinase kinase kinase 1 (Homo sapiens, UniProt Q92918). The experiment in a line: Binding affinity to HPK1 (unknown origin) assessed as dissociation constant.
The subject of the next data set is A2780cis. To be noted: Homo sapiens, dose 2.5 mg/kg, route po, time 7.0 day.
A further data set has as its system IGROV-1. In words: Antiproliferative activity against human IGROV-1 cells assessed as cell growth inhibition incubated for 96 hrs by crystal violet staining. To be noted: IGROV-1, 96 h.

The source made the active and inactive calls. The calls are words filed in the database; no cut-off is given here.

The source of these data is ChEMBL document CHEMBL5678814, “Novel Mps1 Kinase Inhibitors with Potent Antitumor Activity” (Mol Cancer Ther, 2016).

A word on the IC50: it is the concentration that inhibits the measured activity by half. Broadly, the Kd is the concentration at which binding is half-saturated. In general, Tmax refers to the time from dosing to the highest level.

Sequence of Mitogen-activated protein kinase kinase kinase kinase 1 (Q92918 whole entry): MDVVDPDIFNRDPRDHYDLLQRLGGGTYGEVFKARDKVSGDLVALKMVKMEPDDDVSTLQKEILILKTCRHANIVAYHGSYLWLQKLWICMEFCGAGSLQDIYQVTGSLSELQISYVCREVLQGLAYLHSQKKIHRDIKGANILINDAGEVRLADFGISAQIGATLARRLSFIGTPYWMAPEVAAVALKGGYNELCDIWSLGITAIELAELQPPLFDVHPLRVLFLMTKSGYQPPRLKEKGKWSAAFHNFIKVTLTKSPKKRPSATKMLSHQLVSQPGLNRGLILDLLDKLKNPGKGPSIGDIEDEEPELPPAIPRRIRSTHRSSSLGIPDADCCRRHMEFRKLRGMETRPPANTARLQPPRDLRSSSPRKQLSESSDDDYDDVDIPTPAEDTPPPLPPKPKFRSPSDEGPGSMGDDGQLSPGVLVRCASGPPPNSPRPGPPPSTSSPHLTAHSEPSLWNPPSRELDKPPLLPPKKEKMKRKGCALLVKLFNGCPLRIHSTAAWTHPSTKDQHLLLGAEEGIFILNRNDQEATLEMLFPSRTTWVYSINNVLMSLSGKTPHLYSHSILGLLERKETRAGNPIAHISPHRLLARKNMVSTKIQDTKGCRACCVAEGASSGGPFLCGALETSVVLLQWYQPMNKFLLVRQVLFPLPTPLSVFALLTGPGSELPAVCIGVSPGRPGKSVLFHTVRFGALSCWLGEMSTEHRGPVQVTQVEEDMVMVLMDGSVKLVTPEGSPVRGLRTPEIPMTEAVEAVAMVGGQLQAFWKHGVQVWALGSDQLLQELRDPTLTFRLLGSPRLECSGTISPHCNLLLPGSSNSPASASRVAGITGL
Sequence of Mitogen-activated protein kinase 10 (P53779 whole entry): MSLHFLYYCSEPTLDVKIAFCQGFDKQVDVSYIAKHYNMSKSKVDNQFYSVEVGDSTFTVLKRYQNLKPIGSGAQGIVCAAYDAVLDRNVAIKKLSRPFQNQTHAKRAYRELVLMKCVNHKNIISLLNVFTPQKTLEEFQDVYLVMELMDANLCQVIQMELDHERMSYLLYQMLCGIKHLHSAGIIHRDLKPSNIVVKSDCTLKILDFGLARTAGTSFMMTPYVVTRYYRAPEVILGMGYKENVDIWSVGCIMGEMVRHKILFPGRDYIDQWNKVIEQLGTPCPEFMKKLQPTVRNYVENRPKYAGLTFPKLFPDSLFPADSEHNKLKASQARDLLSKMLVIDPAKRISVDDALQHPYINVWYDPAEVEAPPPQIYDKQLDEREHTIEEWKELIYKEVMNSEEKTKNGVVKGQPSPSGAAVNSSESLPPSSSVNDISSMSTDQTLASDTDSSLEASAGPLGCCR

As for `COc1cc(S(C)(=O)=O)ccc1Nc1nc2ccc(-c3ccc(NC(=O)[C@H](C)c4ccc(F)cc4)cc3)cn2n1` [BAY-1161909], the IC50 with NCI-H526 was 100 nM; with OV-90, 150 nM; in the data set with MIA PaCa-2, 1000 nM; with SiHa it was 610 nM; in the data set on RKO, 39 nM; with IGROV-1, 240 nM. The Kd was determined as 96 nM in data set [1] and 40000 nM in data set [3]. For the same compound, the Tmax in data set [2] amounted to 4 h. Also, the inhibition result in the data set on A2780cis was “Active”.
